Assay results as given in ChEMBL document CHEMBL5725589, “Heterocyclic compounds as PI3K-γ inhibitors” (2018).

Assays:
[1] = target: Tyrosine-protein kinase JAK1 (Homo sapiens, UniProt P23458); assay: In Vitro JAK Kinase Assay: Compounds herein were tested for inhibitory activity of JAK targets according to the following in vitro assay described in Park et al., Analytical Biochemistry 1999, 269, 94-104. The catalytic domains of human JAK1 (a.a. 837-1142), JAK2 (a.a. 828-1132) and JAK3 (a.a. 781-1124) were expressed using baculovirus in insect cells and purified. The catalytic activity of JAK1 …
[2] = target: T1, Phosphatidylinositol 4,5-bisphosphate 3-kinase catalytic subunit delta isoform (Homo sapiens, UniProt O00329); assay: PI3Kδ (p110δ/p85α) Recombinant Human Protein was purchased from Eurofins (St Charles, Mo.). […] The final concentration of DMSO in the assay was 2%. […] ATP, 3.4 nM PI3Kδ. […] The final concentration of SPA beads is 1.0 mg/mL.
T1 sequence (O00329 whole entry): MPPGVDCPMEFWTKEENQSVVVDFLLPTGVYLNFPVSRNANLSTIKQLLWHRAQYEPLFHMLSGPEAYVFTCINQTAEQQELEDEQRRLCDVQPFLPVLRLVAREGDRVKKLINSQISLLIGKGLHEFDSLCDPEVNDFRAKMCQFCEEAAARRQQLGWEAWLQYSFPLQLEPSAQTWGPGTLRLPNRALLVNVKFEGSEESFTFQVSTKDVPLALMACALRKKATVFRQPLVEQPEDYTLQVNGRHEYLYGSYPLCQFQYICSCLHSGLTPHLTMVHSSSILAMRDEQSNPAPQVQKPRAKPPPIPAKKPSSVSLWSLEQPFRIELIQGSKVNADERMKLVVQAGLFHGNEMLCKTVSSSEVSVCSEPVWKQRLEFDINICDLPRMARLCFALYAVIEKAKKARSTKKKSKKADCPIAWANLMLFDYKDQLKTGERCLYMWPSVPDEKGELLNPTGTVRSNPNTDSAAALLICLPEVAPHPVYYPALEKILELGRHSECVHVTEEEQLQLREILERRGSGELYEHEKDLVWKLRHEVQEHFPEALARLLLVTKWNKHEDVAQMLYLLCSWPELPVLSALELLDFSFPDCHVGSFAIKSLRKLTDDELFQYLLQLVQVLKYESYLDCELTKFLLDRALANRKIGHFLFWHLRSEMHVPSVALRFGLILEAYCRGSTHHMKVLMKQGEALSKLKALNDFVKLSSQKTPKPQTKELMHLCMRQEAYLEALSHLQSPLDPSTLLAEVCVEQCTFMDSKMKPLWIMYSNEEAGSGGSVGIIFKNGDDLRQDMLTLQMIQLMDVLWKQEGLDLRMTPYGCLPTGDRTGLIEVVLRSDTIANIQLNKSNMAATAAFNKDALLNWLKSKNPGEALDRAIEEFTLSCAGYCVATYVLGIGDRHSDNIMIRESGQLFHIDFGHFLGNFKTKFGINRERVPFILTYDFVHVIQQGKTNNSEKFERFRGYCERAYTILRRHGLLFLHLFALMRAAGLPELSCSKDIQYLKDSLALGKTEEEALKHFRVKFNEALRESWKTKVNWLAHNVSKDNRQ

[3] = target: Phosphatidylinositol 4,5-bisphosphate 3-kinase catalytic subunit gamma isoform (Homo sapiens, UniProt P48736); assay: PI3Kγ (p110γ) Recombinant Human Protein was purchased from Life technology (Grand Island, N.Y.). […] The final concentration of DMSO in the assay was 2%. […] ATP, 13 nM PI3Kγ. […] The final concentration of SPA beads is 1.0 mg/mL.
Chain of Phosphatidylinositol 4,5-bisphosphate 3-kinase catalytic subunit gamma isoform (P48736 whole entry, canonical isoform): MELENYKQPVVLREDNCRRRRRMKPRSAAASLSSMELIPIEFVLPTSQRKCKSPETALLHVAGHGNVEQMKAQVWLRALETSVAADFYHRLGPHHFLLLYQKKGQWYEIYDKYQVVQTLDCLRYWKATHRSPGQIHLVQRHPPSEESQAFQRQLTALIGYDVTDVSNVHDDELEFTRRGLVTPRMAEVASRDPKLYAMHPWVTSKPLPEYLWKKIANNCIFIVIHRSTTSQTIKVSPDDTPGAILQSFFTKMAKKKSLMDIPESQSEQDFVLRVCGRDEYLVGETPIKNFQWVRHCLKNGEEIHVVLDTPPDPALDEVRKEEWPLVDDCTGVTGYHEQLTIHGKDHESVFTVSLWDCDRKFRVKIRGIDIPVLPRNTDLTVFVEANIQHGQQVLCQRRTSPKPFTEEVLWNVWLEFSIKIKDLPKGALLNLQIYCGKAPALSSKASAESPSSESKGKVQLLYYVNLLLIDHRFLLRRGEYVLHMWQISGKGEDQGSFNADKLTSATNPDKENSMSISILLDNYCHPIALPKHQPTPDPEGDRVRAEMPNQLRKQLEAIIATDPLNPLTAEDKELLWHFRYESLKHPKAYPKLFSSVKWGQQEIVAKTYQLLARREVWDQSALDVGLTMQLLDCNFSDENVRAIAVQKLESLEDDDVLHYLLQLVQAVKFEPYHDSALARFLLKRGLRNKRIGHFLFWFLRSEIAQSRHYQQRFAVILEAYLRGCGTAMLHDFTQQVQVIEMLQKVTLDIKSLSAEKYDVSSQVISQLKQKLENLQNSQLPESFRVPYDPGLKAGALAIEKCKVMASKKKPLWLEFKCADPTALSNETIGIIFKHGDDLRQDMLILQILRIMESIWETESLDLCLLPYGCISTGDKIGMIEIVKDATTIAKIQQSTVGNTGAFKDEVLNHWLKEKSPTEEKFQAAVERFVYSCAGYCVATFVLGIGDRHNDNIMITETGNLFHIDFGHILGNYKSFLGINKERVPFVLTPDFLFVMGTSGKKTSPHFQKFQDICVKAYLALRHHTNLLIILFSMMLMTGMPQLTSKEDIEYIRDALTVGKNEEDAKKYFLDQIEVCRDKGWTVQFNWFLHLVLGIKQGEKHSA

Chain of Tyrosine-protein kinase JAK1 (P23458 whole entry, the tested form may be a part, canonical isoform): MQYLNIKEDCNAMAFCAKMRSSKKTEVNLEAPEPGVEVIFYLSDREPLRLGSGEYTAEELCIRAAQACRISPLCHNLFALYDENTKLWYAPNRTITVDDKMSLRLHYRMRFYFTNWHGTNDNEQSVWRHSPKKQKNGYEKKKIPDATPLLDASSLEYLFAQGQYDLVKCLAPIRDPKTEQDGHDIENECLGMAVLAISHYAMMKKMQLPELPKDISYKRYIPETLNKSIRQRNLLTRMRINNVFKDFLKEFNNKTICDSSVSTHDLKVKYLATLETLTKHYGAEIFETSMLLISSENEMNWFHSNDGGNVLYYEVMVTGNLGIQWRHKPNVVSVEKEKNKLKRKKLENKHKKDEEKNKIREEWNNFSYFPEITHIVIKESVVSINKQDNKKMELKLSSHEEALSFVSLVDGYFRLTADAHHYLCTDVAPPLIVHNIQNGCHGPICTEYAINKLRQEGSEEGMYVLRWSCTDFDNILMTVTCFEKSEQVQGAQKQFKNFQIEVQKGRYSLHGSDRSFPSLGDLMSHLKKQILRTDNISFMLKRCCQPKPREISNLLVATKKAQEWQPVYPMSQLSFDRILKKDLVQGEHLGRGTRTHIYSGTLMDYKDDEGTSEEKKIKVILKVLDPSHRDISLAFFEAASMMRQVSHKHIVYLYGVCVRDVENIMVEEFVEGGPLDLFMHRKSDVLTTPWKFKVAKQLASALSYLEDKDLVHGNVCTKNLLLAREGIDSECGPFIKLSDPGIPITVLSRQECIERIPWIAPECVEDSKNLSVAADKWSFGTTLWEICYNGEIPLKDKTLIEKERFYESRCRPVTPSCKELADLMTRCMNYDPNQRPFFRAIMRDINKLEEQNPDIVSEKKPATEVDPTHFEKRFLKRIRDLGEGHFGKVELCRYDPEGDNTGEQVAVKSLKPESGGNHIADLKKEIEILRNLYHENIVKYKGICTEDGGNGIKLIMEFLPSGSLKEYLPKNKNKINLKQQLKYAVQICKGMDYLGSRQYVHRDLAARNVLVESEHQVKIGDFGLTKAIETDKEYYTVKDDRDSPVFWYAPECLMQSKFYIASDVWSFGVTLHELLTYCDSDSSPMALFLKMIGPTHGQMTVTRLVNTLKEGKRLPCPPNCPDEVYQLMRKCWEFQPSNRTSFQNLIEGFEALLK

Compound	IC50 [1] [nM]	IC50 [2] [nM]	IC50 [3] [nM]
N#CC[C@]1(n2cc(-c3ncnc4[nH]ccc34)cn2)C[C@H](N2CCC(Oc3cc(CN4CC(O)C4)cc(C(F)(F)F)n3)CC2)C1	< 100		
N#CCC(C1CCN(c2nc3cccnc3o2)C1)n1cc(-c2ncnc3[nH]ccc23)cn1 (centres undefined)	< 100		
CCNCc1cc(O[C@H]2CC[C@@H](N3CC(CC#N)(n4cc(-c5ncnc6[nH]ccc56)cn4)C3)CC2)nc(C(F)(F)F)c1	< 100		
N#CC[C@]1(n2cc(-c3ncnc4[nH]ccc34)cn2)C[C@H](N2CCC(Oc3cc(CN4CCC[C@@H]4CO)cc(C(F)(F)F)n3)CC2)C1	< 100		
Cc1cc(C(C)NC(=O)c2c(N)nn3cccnc23)c(-c2ccccc2)c2[nH]nc(C)c12 (centres undefined)		< 2000	< 500
N#CCC1(n2cc(-c3ncnc4[nH]ccc34)cn2)CN([C@H]2CC[C@@H](Oc3cc(CCO)nc(C(F)(F)F)n3)CC2)C1	< 100		
N#CC[C@]1(n2cc(-c3ncnc4[nH]ccc34)cn2)C[C@H](N2CCC(Oc3cc(CCO)cc(C(F)(F)F)n3)CC2)C1	< 100		
CC(C)(O)c1cc(O[C@H]2CC[C@@H](N3CC(CC#N)(n4cc(-c5ncnc6[nH]ccc56)cn4)C3)CC2)nc(C(F)(F)F)c1	< 100		
CC(NC(=O)c1c(N)nn2cccnc12)c1cc(C#N)c2cncn2c1-c1ccccc1 (centres undefined)		< 500	< 500
CC(NC(=O)c1c(N)nn2cccnc12)c1cc(Cl)c2cn(Cc3ccn(C)n3)nc2c1-c1ccccc1 (centres undefined)		< 2000	< 500
C[C@@H](O)c1nc2cnc3ccsc3c2n1[C@H]1CC[C@H](CC#N)OC1	< 500		
CCCC(NC(=O)c1c(N)nn2cccnc12)c1cc(Cl)c2cncn2c1N1CCS(=O)(=O)CC1 (centres undefined)		< 100	< 100
CC(NC(=O)c1c(N)nn2cccnc12)c1cc(Cl)c2cncn2c1-c1ccccc1 (centres undefined)		< 100	< 100
C[C@@H](O)CNCc1cc(OC2CCN([C@H]3C[C@](CC#N)(n4cc(-c5ncnc6[nH]ccc56)cn4)C3)CC2)nc(C(F)(F)F)c1	< 100		
N#CC[C@]1(n2cc(-c3ncnc4[nH]ccc34)cn2)C[C@H](N2CCC(Oc3cc(CN4CCC[C@H]4CO)cc(C(F)(F)F)n3)CC2)C1	< 100		
CCOc1c(C(C)NC(=O)c2c(N)nn3cccnc23)cc(Cl)c2cn(CC)nc12 (centres undefined)		< 2000	< 500

Results, then the molecule that gave them:

IC50 [1] [nM]	IC50 [2] [nM]	IC50 [3] [nM]	Compound
< 100			N#CCC1(n2cc(-c3ncnc4[nH]ccc34)cn2)CN(C2CCN(C(=O)Nc3ccc(F)cc3C(F)(F)F)CC2)C1
< 100			N#CCC1(n2cc(-c3ncnc4[nH]ccc34)cn2)CN(C2CCN(C(=O)c3ccnc(C(F)(F)F)n3)CC2)C1
< 100			N#CC[C@]1(n2cc(-c3ncnc4[nH]ccc34)cn2)C[C@H](N2CCN(C(=O)c3ccnc(C(F)(F)F)n3)CC2)C1
	< 500	< 500	CC(NC(=O)c1c(N)nn2cccnc12)c1cc(Cl)c2cn(CC(=O)N3CCOCC3)nc2c1-c1ccccc1 (centres undefined)
< 100			N#CCC(CN1CCN(C(=O)c2ccc(C#N)cc2F)CC1)n1ccc(-c2ncnc3[nH]ccc23)c1 (centres undefined)
	< 100	< 100	CC(NC(=O)c1c(N)nn2cccnc12)c1cc(Cl)c2cnn(CCN3CCOCC3)c2c1-c1ccccc1 (centres undefined)
	< 500	< 500	CCOc1c(C(C)NC(=O)c2c(N)nn3cccnc23)cc(Cl)c2cn(C)nc12 (centres undefined)
	< 2000	< 100	CC(NC(=O)c1c(N)nn2cccnc12)c1cc(Cl)c2c(Br)n[nH]c2c1-c1ccccc1 (centres undefined)
	< 100	< 100	Cc1ncc2c(Cl)cc(C(C)NC(=O)c3c(N)nn4cccnc34)c(-c3cccc(F)c3)n12 (centres undefined)
< 100			C[C@@H](CO)NCc1cc(OC2CCN([C@H]3C[C@](CC#N)(n4cc(-c5ncnc6[nH]ccc56)cn4)C3)CC2)nc(C(F)(F)F)c1
	< 500	< 100	CC(NC(=O)c1c(N)nn2cccnc12)c1cc(Cl)c2cn[nH]c2c1-c1ccccc1 (centres undefined)
	< 500	< 100	Cc1n[nH]c2c(-c3ccccc3)c(C(C)NC(=O)c3c(N)nn4cccnc34)cc(Cl)c12 (centres undefined)
	< 2000	< 100	Cc1cc(C(C)NC(=O)c2c(N)nn3cccnc23)c(-c2cccc(F)c2)n2c(C)ncc12 (centres undefined)
< 100			C[C@H](NC(=O)c1cc(F)c(N2CC(CC#N)(n3cc(-c4ncnc5[nH]ccc45)cn3)C2)cc1F)C(F)(F)F
	< 100	< 100	CCOc1c(C(C)NC(=O)c2c(N)nn3cccnc23)cc(Cl)c2cnn(C)c12 (centres undefined)
< 100			N#CCC1(n2cc(-c3ncnc4[nH]ccc34)cn2)CN([C@H]2CC[C@@H](Oc3cc(CN4CC[C@@H](O)C4)cc(C(F)(F)F)n3)CC2)C1
< 100			N#CCC1(n2cc(-c3ncnc4[nH]ccc34)cn2)CN([C@H]2CC[C@@H](Oc3cc(CN4CC[C@H](O)C4)cc(C(F)(F)F)n3)CC2)C1 (single isomer, unassigned)
< 100			N#CCC1(n2cc(-c3ncnc4[nH]ccc34)cn2)CN(C2CCN(C(=O)c3ccnc(C(F)(F)F)c3F)CC2)C1 [ITACITINIB]
